Marks after values point to notes of the source that are not given here. No end group written: not given here. *: point of attachment. CH3(CH2)22CO = C24 acyl (CH3(CH2)22CO-), CCCCCCCCCCCCCCCCCCCCCCCC(=O)*; Stearoyl = CCCCCCCCCCCCCCCCCC(=O)*; Lauroyl = CCCCCCCCCCCC(=O)*
Tests used:
[1] = Plasma ANP level by ELISA after s.c. ANP in the same study; type: in vivo, Balb/c mice; conditions: ANP 12 mg/Kg s.c., injection at 0 hour and 6 hours; average of all groups with same dose; value (SEM)
Description: An investigation was carried out to determine whether prolonged presence of ANP in the blood would have a sustained pharmacodynamic effect, reflected by elevation of cGMP blood concentration, and to determine whether that elevation would be proportional to the level of ANP. The level of blood cGMP relative to ANP was determined. […] This problem had not been documented in literature and there was no reason to solve this previously unknown problem. […] For this study, 4 groups of Balb/c mice (n=3/group; female, 5-6 weeks old; 18-25 g) were used and the cGMP levels at various time points after ANP administration with and without 2nd ANP administration were evaluated. […] Two subsequent s.c. (subcutaneous) administrations of the ANP formulated in a polymeric excipient (to increase in vivo stability) were evaluated. […] The plasma samples were analyzed for cGMP using the cGMP ELISA kit (GE Healthcare Life Sciences, Marlborough, MA) according to manufacturer's protocol. […] The level of ANP associated with cGMP was also measured to further confirm receptor depletion was the result of lack of responsiveness if any. The associated level of ANP was measured using an ELISA assay kit (GE Healthcare Life Sciences, Marlborough, MA) according to manufacturer's protocol. […]

[2] = system: natriuretic peptide receptors (NPRA or NPRB); assay: 2-point blood cGMP evaluation (2 and 6 hours) after 15 mg/Kg s.c., cGMP Direct Biotrak EIA; type: in vivo, CD-1 mice; conditions: for In vivo blood cGMP minus baseline, 2 hour (potency) / In vivo blood cGMP minus baseline, 6 hour (receptor depletion): 15 mg/Kg s.c. in mice (n=3), minus baseline 30 pmol/ml (n=12); for In vivo blood cGMP minus baseline, 2 hour (potency): 2 hours after dosing; for In vivo blood cGMP minus baseline, 6 hour (receptor depletion): 6 hours after dosing; for activity / potency compared to ANP, in words (2 hour data in Table 2) / apparent receptor depletion/internalization, in words (6 hour data in Table 2): 15 mg/Kg s.c. in mice, blood cGMP
Description: Various derivatives of ANP were made and screened for increase in vivo potency while limiting the apparent receptor depletion effects (or perhaps can act on another cGMP enhancing receptors) by looking at the level of blood cGMP at specific time points. […] Various derivatives were made and tested in vivo to determine the level of blood cGMP at 2 hours and 6 hours after subcutaneous administration of 15 mg/Kg in mice (which was allometrically equivalent to human dose of 1.5 mg/Kg) with the goal of finding derivatives that were therapeutically useful for increasing blood cGMP.
For 2-point cGMP evaluation of various derivatives, test samples were dissolved in water (Lonza, Wakersville, MD) before being lyophilized. Prior to use, the lyophilized test sample was dissolved in saline then 15 mg/Kg was injected subcutaneously into female CD-1 mice 6-8 weeks (n=3). Blood samples were collected at 2 and 6 hours with K2EDTA blood collection tube. The collection tube was then centrifuged at 13,000 rpm for 10 minutes at 4° C. to separate plasma. The plasma was analyzed using the cGMP Direct Biotrak EIA (GE Healthcare Life Sciences, Marlborough, MA). Note that by using allometric scaling at exponent of 0.7 [dose in other species=mice dose/((mouse weight/weight of average other species)^0.7)], the 15 mg/Kg in mice is equivalent to about 7.5 mg/Kg rat dose, about 2.5 mg/Kg dog dose, and 1.5 mg/Kg human dose. For the purpose the present disclosure, the 15 mg/Kg in mice as presented in the relevant data examples, should be understood as equivalent to about 7.5 mg/Kg rat dose, which is equivalent to about 2.5 mg/Kg dog dose, which is equivalent to about 1.5 mg/Kg human dose. Because the mice cGMP response to 15 mg/Kg dose of the newly discovered derivatives (see Table 2) was quite high, it would be prudent to use daily doses that are lower than 15 mg/Kg for mice, 7.5 mg/Kg for rat, 2.5 mg/Kg for dog, and 1.5 mg/Kg for human since any higher dose may result in too much increase in cGMP that can result in too much or even dangerous drop in blood pressure unless formulated in a very slow release delivery system. In fact based on cGMP response it was more preferable to use daily doses that are lower than […], 1.5 mg/Kg for rat, 0.5 mg/Kg for dog, and 0.3 mg/Kg for human. Additionally, the level of blood cGMP is preferably between 1.5 to 3-times of the normal baseline level. The blood or plasma cGMP normal baseline level was about 20-50 pmol/ml but could vary slightly depending on the assay kit used to measure the level.

| 2 hrs. ANP level [1] | Compound | In vivo blood cGMP minus baseline, 2 hour (potency) [2] [nM] | In vivo blood cGMP minus baseline, 6 hour (receptor depletion) [2] [pmol/mL] | activity / potency compared to ANP, in words (2 hour data in Table 2) [2] | apparent receptor depletion/internalization, in words (6 hour data in Table 2) [2] |
| --- | --- | --- | --- | --- | --- |
| 67.24 (6.92)* ng/ml | CC[C@H](C)[C@@H]1NC(=O)[C@H](CCCNC(=N)N)NC(=O)[C@H](CC(=O)O)NC(=O)[C@H](CCSC)NC(=O)[C@H](CCCNC(=N)N)NC(=O)CNC(=O)CNC(=O)[C@H](Cc2ccccc2)NC(=O)[C@@H](NC(=O)[C@H](CO)NC(=O)[C@H](CO)NC(=O)[C@H](CCCNC(=N)N)NC(=O)[C@H](CCCNC(=N)N)NC(=O)[C@H](CC(C)C)NC(=O)[C@@H](N)CO)CSSC[C@@H](C(=O)N[C@@H](CC(N)=O)C(=O)N[C@@H](CO)C(=O)N[C@@H](Cc2ccccc2)C(=O)N[C@@H](CCCNC(=N)N)C(=O)N[C@@H](Cc2ccc(O)cc2)C(=O)O)NC(=O)CNC(=O)[C@H](CC(C)C)NC(=O)CNC(=O)[C@H](CO)NC(=O)[C@H](CCC(N)=O)NC(=O)[C@H](C)NC(=O)CNC1=O [SEQ ID NO. 1] | – | – | – | – |
| – | CH3(CH2)22COKKKKGGGSLRRSSCFGGRMDRIGAQSGLGCNSFRY ({CH3(CH2)22CO}-KKKKGGGSLRRSSCFGGRMDRIGAQSGLGCNSFRY; not fully specified (bridges); printed as CH3(CH2)22COKKKKGGGSLRRSSCFGGRMDRIGAQSGLGCNSFRY; cysteine pairing not given here; listed as Homo Sapiens) [SEQ ID NO. 95] | 260.8 | 245.6 | – | – |
| – | CH3(CH2)16CO-KKKKSLRRSSCFGGRMDRIGAQSGLGCNSFRY (Stearoyl-KKKKSLRRSSCFGGRMDRIGAQSGLGCNSFRY; not fully specified (bridges); cysteine pairing not given here; listed as Homo Sapiens) [SEQ ID NO. 35] | 45.00 | 12.79 | slightly increased in activity | no significant effect on apparent receptor internalization |
| – | GLSKGCFGLKLDRIGSMSGLGC [SEQ ID NO. 57, reference compound] | 93.75 | 24.55 | – | – |
| – | KKGGGSLRRSSCFGGRMDRIGAQSGLGCNSFRY (listed as Homo Sapiens) [SEQ ID NO. 6] | 28.6 | -4.81 | – | – |
| – | CH3(CH2)16CO-RRR-SGRGSGCFGGRMDRIGAQSGLGCNSFRY (Stearoyl-RRRSGRGSGCFGGRMDRIGAQSGLGCNSFRY; not fully specified (bridges); printed as CH3(CH2)16CO-RRR-SGRGSGCFGGRMDRIGAQSGLG; cysteine pairing not given here; listed as Homo Sapiens) [SEQ ID NO. 38] | 33.56 | 7.97 | limited increase in activity | – |
| – | CH3(CH2)10CO-KKKKGGGSLRRSSCFGGRMDRIGAQSGLGCNSFRY (Lauroyl-KKKKGGGSLRRSSCFGGRMDRIGAQSGLGCNSFRY; not fully specified (bridges); printed as CH3(CH2)10CO-KKKKGGGSLRRSSCFGGRMDRIGAQSGLGCNSFRY; cysteine pairing not given here; listed as Homo Sapiens) [SEQ ID NO. 15] | 60.52 | 3.36 | increased potency | prevented apparent receptor depletion/internalization |
| – | KKKKGGGSLRRSSCFGGRMDRIGAQSGLGCNSFRY (listed as Homo Sapiens) [SEQ ID NO. 8] | 53.00 | 15.25 | – | – |
| – | GSLRRSSCFGGRMDRIGAQSGLGCNSFRY (listed as Homo Sapiens) [SEQ ID NO. 2] | 44.08 | -13.85 | – | – |
| – | CH3(CH2)16COKKKGGGGLSKGCFGLKLDRIGSMSGLGC (Stearoyl-KKKGGGGLSKGCFGLKLDRIGSMSGLGC; not fully specified (bridges); printed as CH3(CH2)16COKKKGGGGLSKGCFGLKLDRIGSMSGLGC; cysteine pairing not given here; listed as Homo Sapiens) [SEQ ID NO. 68] | 330.29 | 250.33 | – | – |
| – | KKKGGGSLRRSSCFGGRMDRIGAQSGLGCNSFRY (listed as Homo Sapiens) [SEQ ID NO. 7] | 23.40 | -1.19 | – | – |
| – | KGGGSLRRSSCFGGRMDRIGAQSGLGCNSFRY (listed as Homo Sapiens) [SEQ ID NO. 5] | 59.96 | 44.34 | – | – |
